Series [1] has as its target Rat2 fibroblasts stably transformed with v-Src/Hu c-Src fusion gene (Homo sapiens, UniProt P12931, cells depend on it, form not given). Description: Anchorage Independent Src-transformed Fibroblast Proliferation Assay. The format is cell-based, Rat. Particulars: suspension growth, MTS reagent on Day 5; read-out: anch-indep src-tx fib IC50. As to the method: Anchorage Independent Src-transformed Fibroblast Proliferation Assay
Rat2 fibroblasts stably transformed with a plasmid containing a CMV promotor controlled v-Src/Hu c-Src fusion gene in which the catalytic domain of human c-Src was inserted in place of the v-Src catalytic domain in the v-Src gene are used for the measurement of src dependent suspension growth. […] Multiple entries for a given compound indicate that it was tested multiple times.

The next series has as its target Src (Homo sapiens, UniProt P12931). Description: c-Src Kinase Assay (ELISA). Format: biochemical. As to the method:
Inhibitors of Src (partially purified preparation purchased from Upstate Biotechnologies) tyrosine kinase activity are analyzed in an ELISA format. […] Horseradish Peroxidase (HRP)-conjugated anti-phosphotyrosine is used to detect phosphorylated peptide via a color reaction. Conditions recommended by the manufacturer are employed.
Reaction conditions: Five microliter aliquots of each compound prepared fresh at the time of the assay are added as a solution in lOmM HEPES pH 7.5, 10% DMSO to the reaction well. Thirty-five microliters of reaction mix containing Src, buffer and peptide/bovine serum albumin mix are added to the compound wells and incubated at 30° C. for 10 minutes (reaction buffer: 5 OmM TrisHCI pH 7.5, l0 mM MgCl2, O.lmM EGTA, 0.5 mM Na3 VO4)-1H-. The reaction is started by addition of 10 microliters of ATP, incubated at 30° C. for 1 hour, and stopped by addition of 20 microliters of 0.5 M EDTA. The reaction mixture with the phosphorylated peptide is then transferred to a streptavidin-coated microtiter plate (provided in the kit) and allowed to bind for 20 minutes. IUnbound peptide and reaction mixture is decanted and the plate is washed with PBS six times. HRP-conjugated phosphotyrosine antibody supplied in the kit is incubated with the plate for one hour, then decanted. The plate is again washed with PBS six times.
Activity is determined as % inhibition as calculated by the formula: (1−Abs/Abs(max) ) ×100=% inhibition.
(In an ELISA, binding on a coated surface is turned into a signal by an enzyme label.)

A further series addresses T1, Raf1 (c-Raf) (Homo sapiens, UniProt P04049).
T1 construct: Sf9 insect cell lysate containing full length 6 his-tagged recombinant human c—Raf; 6His; host or cells: Sf9 insect cells (c-Raf, used as lysate); E. coli (GST-MEK1, GST-MAPK)
Description: Raf1 Kinase Cascade Assay. Format: biochemical. As to the method: Raf1 Kinase Cascade Assay Procedure
(Specific Activity: ˜200 U/ml). Human Non-active Mek-1—GST and human GST-MAP kinase (recombinant proteins produced in E. coli).
Stock Solutions Raf Assay:
Assay Dilution Buffer (ADB): 2 OmM MOPS, pH 7.2, 25 mM B-glycerol phosphate, mM EGTA, 1 mM sodium orthovanadate, 1 mM dithiothreitol. Magnesium/ATP Cocktail: 500 AM cold ATP and 75 mM magnesium chloride in ADB.
Active Kinase: Human Active c—Raf: Use at 0.4 U per assay point. Non-active GST-MEK1: Use at 0.1, ug per assay point. Non-active GST-p42 MAP Kinase: Use at 1.0 tg per assay point.
TBST—Tris (50 mM, pH 7.5)-1H-, NaCl (150 mM), Tween-20 (0.05%) Superblock (Pierce) Anti—GST Ab (Pharmacia) Anti-Phospho MAPK (Sigma) Anti-Mouse Ab/Europium conjugate (Wallac)
Assay Procedure: First Stage: c—Raf Dependent Activation of GST-MEK and GST-MAPK Add […] of ADB per assay (i.e. per well of a 96 well plate) Add 10 ml of 0.5 mM cold ATP and 75 mM magnesium chloride in ADB. Add 2 ml of c—Raf (0.4 U/assay), in conjunction with 1.6 ml non-active MEKI (0.4 mg/assay). Add 4 ml of non-active GST-p42 MAP Kinase (1.0 mg/assay). Incubate for 60 minutes at 30° C. in a shaking incubator. Transfer this mixture to an anti—GST Ab coated 96 well plate (Nunc Immunosorb plates coated o/n with a—GST, then blocked with Pierce Superblock). Incubate for 60 minutes at 30° C. in a shaking incubator Wash 3×with TBST, add Anti-Phospho MAPK (Sigma) (1:3000)-1H-Incubate for 60 minutes at 30° C. in a shaking incubator Wash 3×with TBST, add Anti-Mouse Ab/Europium conjugate (Wallac) (1:500)-1H-Incubate for 60 minutes at 30° C. in a shaking incubator Wash 3×with TBST, Read plates in Wallac Victor model Plate Reader. Collect data analyze in Excel for single point and IC50 determinations.
IC50 determinations - done on compounds from single point assays with >80% inhibition. Typically Raf-1 assay is run at compound concentrations from 10 μM to 30 nM in half log dilutions. (% inhibition is determined for each compound concentration).

Several values for one entry are separate records, joined by “and”; a condition that tells them apart may be missing. Equal values may be shown once. Where only a bound is given, the exact number is not on record here.

T1 sequence (P04049 whole entry): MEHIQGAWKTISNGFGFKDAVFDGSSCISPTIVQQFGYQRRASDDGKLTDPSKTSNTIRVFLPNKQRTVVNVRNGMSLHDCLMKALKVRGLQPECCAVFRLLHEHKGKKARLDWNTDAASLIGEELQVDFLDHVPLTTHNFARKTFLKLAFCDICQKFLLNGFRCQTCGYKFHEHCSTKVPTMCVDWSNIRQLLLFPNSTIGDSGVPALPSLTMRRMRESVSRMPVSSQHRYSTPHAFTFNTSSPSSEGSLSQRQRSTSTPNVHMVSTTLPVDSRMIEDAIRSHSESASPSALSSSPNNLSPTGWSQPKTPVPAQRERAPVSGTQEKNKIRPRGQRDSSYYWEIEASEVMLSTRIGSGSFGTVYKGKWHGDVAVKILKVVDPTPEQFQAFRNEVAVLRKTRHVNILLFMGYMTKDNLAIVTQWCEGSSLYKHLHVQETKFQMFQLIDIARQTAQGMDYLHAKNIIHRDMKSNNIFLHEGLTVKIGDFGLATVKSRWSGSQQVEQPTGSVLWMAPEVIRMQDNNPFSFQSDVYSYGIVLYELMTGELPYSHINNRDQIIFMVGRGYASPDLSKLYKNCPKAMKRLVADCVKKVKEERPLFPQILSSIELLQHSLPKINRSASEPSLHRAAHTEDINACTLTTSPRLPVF

Take “4-[(2,4-Dichloro-5-methoxyphenyl) amino]-7-[4-(4-morpholinyl) phenyl]-3-quinolinecarbonitrile [Example 128]”: in series [1], the GI50 was determined as 640 nM. For the same compound, at Src, it took 3.2 nM to reach half-maximal inhibition (IC50).
`COc1cc(Nc2c(C#N)cnc3cc(/C=C/c4ccccn4)ccc23)c(Cl)cc1Cl` [Example 3, 4-(2,4-Dichloro-S-methoxyanilino)-7-[(E)-2-(2-pyrdinyl)ethenyl]-3-quinoline-carbonitrile]: the IC50 on Src came out at 11 nM.
For the compound “(1-{4-[3-Cyano-4-(2,4-dichloro-5-methoxyanilino)-7-quinolinyl]benzyl }-4-piperidinyl) acetic acid [Example 100]”, the GI50 in series [1] was 340 nM and 400 nM. On Src, this compound registered an IC50 of 0.57 nM.
With `N#Cc1cnc2cc(-c3csc(CN4CCCCC4)c3)ccc2c1Nc1ccc(Sc2ccccc2)c(Cl)c1` [Example 462, 4-{[3-chloro-4-(phenylsulfanyl)phenyl]amino}-7-[5-(1-piperidinylmethyl)-3-thienyl]-3-quinolinecarbonitrile], on Raf1 (c-Raf), the IC50 was 50 nM.
Regarding `COc1cc(Nc2c(C#N)cnc3cc(-c4ccc(C=O)s4)ccc23)c(Cl)cc1Cl` [Example 52, 4-(2,4-dichloro-5-methoxyanilino)-7-(5-formyl-2-thienyl)-3-quinolinecarbonitrile], the melting point is > 300 °C (dec.). The compound also had an IC50 at Src of 11 nM.
Consider “4-(2,4-Dichloro-5-methoxyanilino)-7-(3-formyl)-3-quinolinecarbonitrile [Example 112]”, for which, in series [1], the GI50 was 7300 nM. Besides, the IC50 against Src was found to be 36 nM.
For `COc1cc(Nc2c(C#N)cnc3cc(-c4ccc(-c5ccccc5)cc4)ccc23)c(Cl)cc1Cl` [Example 165, 7-[1,1-Biphenyl]-4-yl-4-(2,4-dichloro-5-methoxyanilino)-3-quinolinecarbonitile], the GI50 in series [1] is more than 10000 nM. Besides, on Src (at 10 nM), the “ELISA c-src % inhibition” value turned out to be 28% at 10 nM.
In turn, `COc1cc(Nc2c(C#N)cnc3cc(-c4ccc(CNCCc5ccccn5)o4)ccc23)c(Cl)cc1Cl` [Example 74, 4-(2,4-Dichloro-5-methoxyanilino)-7-[5-({[2-(2-pyridinyl)ethyl]amino}methyl)-2-furyl]-3-quinolinecarbonitrile] yielded a melting point of 130 to 135 °C. Further, the GI50 in series [1] was found to be 1400 nM. Besides, at Src, the IC50 was determined as 40 nM.
On the same counts, the results for `COc1cc(Nc2c(C#N)cnc3cc(C#CCN4CCOCC4)ccc23)c(Cl)cc1Cl` [Example 146, 4-(2 ,4-Dichloro-5-methoxyanilino)-7-[3-(4-morpholinyl)-1-propynyl]-3-quinolinecarbonitrile] are 190 to 191 °C, 6500 nM and 22 nM.
Taken in the same sequence, the figures for `COc1cc(Nc2c(C#N)cnc3cc(-c4cc5ccccc5s4)ccc23)c(Cl)cc1Cl` [Example 120, 7-(1-benzothien-2-yl)-4-(2,4-dichloro-5-methoxyanilino)-3-quinolinecarbonitrile] were 269 to 270 °C, more than 10000 nM and 170 nM.
As for `COc1cc(Nc2c(C#N)cnc3cc(-c4ccc(CN5CCC(O)CC5)s4)ccc23)c(Cl)cc1Cl` [Example 89, 4-(2,4-dichloro-5-methoxyanilino)-7-{5-[(4-hydroxy-1-piperidinyl)methyl]-2-thienyl}-3-quinolinecarbonitrile], the GI50 in series [1] is 90 nM. The IC50 at Src is 0.52 nM and 0.84 nM.
`COc1cc(Nc2c(C#N)cnc3cc(-n4cccc4CN(C)C)ccc23)c(Cl)cc1Cl` [Example 93]: the melting point is 157 to 158 °C. For the same compound, the GI50 in series [1] was more than 10000 nM. In addition, the IC50 against Src was 610 nM and 680 nM.
As for `COc1cc(Nc2c(C#N)cnc3cc(-c4ccc(-c5nnn[nH]5)cc4)ccc23)c(Cl)cc1Cl` [Example 105], the GI50 in series [1] is > 10000 nM and 5900 nM. For the same compound, the IC50 against Src was determined as 10 nM.
Take `COc1cc(Nc2c(C#N)cnc3cc(-n4cccc4)c(OC)cc23)c(Cl)cc1Cl` [Example 59, 4-(2,4-Dichloro-5-methoxyanilino)-6-methoxy-7-(1H-pyrrol-1-yl)-3-quinolinecarbonitrile]: the melting point fell in the range of 229 to 230 °C. Also, on Src, the IC50 was 12 nM and 15 nM.
For the compound `COc1cc(Nc2c(C#N)cnc3cc(-c4ccc(CN5CCOCC5)c(CN5CCOCC5)c4)ccc23)c(Cl)cc1C` [Example 133, 7-[3 ,4-Bis(4-morpholinylmethyl)phenyl]-4-(2-chloro-5-methoxy-4-methylanilino)-3-quinolinecarbonitrile], the melting point fell in the range of 186 to 188 °C. Also, the GI50 in series [1] is 730 nM.
Taken in the same sequence, the figures for `COc1cc(Nc2c(C#N)cnc3cc(-c4ccc(CCCCN5CCOCC5)s4)ccc23)c(Cl)cc1Cl` [Example 22, 4-(2,4-Dichloro-5-methoxyanilino)-7-{5-[4-(4-morpholinyl)butyl]-2-thienyl}-3-quinolinecarbonitrile] were 188 °C (dec.) and 600 nM.
Take `COc1cc(Nc2c(C#N)cnc3cc(-c4ccc(C(=O)O)cc4)ccc23)c(Cl)cc1Cl` [Example 121, 4-[3-Cyano-4-(2,4-dichloro-5-methoxyanilino)-7-quinolinyl]benzoic acid]: the melting point lay in the range of 282 to 283 °C. The GI50 in series [1] was more than 10000 nM.
`COc1cc(Nc2c(C#N)cnc3cc(-c4cccc(N)c4)ccc23)c(Cl)cc1Cl` [Example 174, 7-(3-Aminophenyl)-4-[(2,4-dichloro-5-methoxyphenyl)amino]-3-quinolinecarbonitrile]: the melting point is 221 to 222 °C. Further, the GI50 in series [1] amounted to 5600 nM.
The compound `COc1ccc(/C=C/c2ccc3c(Nc4cc(OC)c(Cl)cc4Cl)c(C#N)cnc3c2)cc1` [Example 54, 4-(2,4-Dichloro-5-methoxyanilino)-7-[(E)-2-(4-methoxyphenyl)ethenyl]-3-quinolinecarbonitrile] showed a melting point of 216 to 220 °C. In addition, the GI50 in series [1] is more than 10000 nM.
Taken in the same sequence, the figures for `COc1cc(Nc2c(C#N)cnc3cc(-c4ccc(CN5CCC[C@@H]5C(N)=O)cc4)ccc23)c(Cl)cc1Cl` [Example 84, (2 R)-1-{4-[3-cyano-4-(2,4-dichloro-5-methoxyanilino)-7-quinolinyl]benzyl}-2-pyrrolidinecarboxamide] were 180 to 182 °C and 770 nM.
Taken in the same sequence, the figures for `COc1ccc(Cl)c(Nc2c(C#N)cnc3cc(-c4ccc(CN5CCOCC5)cc4)ccc23)c1` [Example 236, 4-(2-Chloro-5-methoxyanilino)-7-[4-(4-morpholinylmethyl)phenyl]-3-quinolinecarbonitrile] were 160 to 163 °C and 570 nM.
Consider “(E)-3-[3-Cyano-4-(2,4-dichloro-5-methoxyanilino)-7-quinolinyl]-2-propenoic acid [Example 99]”, for which, in series [1], the GI50 was more than 10000 nM. The compound also gave an IC50 at Src of 44 nM.

As usually defined, the IC50 is the concentration that gives 50% inhibition. Usually melting point stands for the temperature of the solid-liquid transition.

For the origin of these results see US20020026052A1, “3-cyanoquinolines, 3-cyano-1,6-naphthyridines, and 3-cyano-1,7-naphthyridines as protein kinase inhibitors” (American Home Products Corporation, priority 2000, published 2002).
